The results in this text go back to paper PMC5078989, “Targeted inhibition of the COP9 signalosome for treatment of cancer” (Nature Communications, 2016).

The target in test [1] is T1, RPN11 (26S proteasome) (Homo sapiens, UniProt O00487).
T1 construct: purchased LifeSensors PS026
Nature of the test: Selectivity assay RPN11 (26S proteasome). Format: biochemical. The following applies: JAMM domain protease. The method, then:
All biochemical assays were performed at room temperature in 384-well plates in a total volume of 25.25 μl per well. Test compounds were dissolved in 90% (v/v) DMSO/water. For the assays, 250 nl of compound solution was added per well, followed by addition of 12.5 μl protease solution. After 70 min of pre-incubation at room temperature, the reactions were started by addition of 12.5 μl substrate solution and followed either by measuring fluorescence intensity (rhodamine 110-based substrates) or by fluorescence lifetime (PT14-based substrates). The effect of compound on enzymatic activity was obtained from the linear part of the progress curves and determined after 1 h (t=60 min). The final compound concentrations ranged from 100 μM to 1 nM.
RPN11 (26S proteasome). Enzyme purchased from LifeSensors (catalogue number PS026); substrate: K48-linked tetra-ubiquitin chain coupled to a rhodamine 110 fluorophore purchased from LifeSensors (catalogue number NO13–158.01); enzyme concentration: 0.75 nM; substrate concentration: 100 nM; assay buffer: 20 mM Hepes at pH 7.4, 150 mM NaCl, 0.02% Tween-20, 0.5 mM TCEP, 0.05 mM MgCl2, 1 mM ATP and 2 μM ubiquitin aldehyde.

In test [2] the test system is NCI-H2030 cells. Nature of the test: Cell viability assay (CellTiter-Glo), NCI-H2030. The class given is cell-based, human. The following applies: NCI-H2030, 72 h; cytostatic. As to the method: Cells were maintained in a humidified incubator at 37 °C and 5% CO2. […] All cells were negatively tested for mycoplasma contamination either by the vendor or in house. […] If not stated otherwise, cells were harvested after incubation for 16 h and subjected to SDS-PAGE and western blotting. The RNA interference experiment was performed with CSN5 stealth siRNA (#HSS116986) and stealth negative control siRNA (#12935-400) (Invitrogen), which were transfected at 10 nM into HCT116 cells using […] (Qiagen) according to the manufacturer's protocols. Seventy-two hours after transfection, cells were harvested and subjected to SDS-PAGE and western blotting (see Supplementary Fig. 7 for all western blottings performed). A standardized CellTiter-Glo Assay (Promega #G7570) based on the quantification of ATP was applied according to the manufacturer's protocol to measure the amount of viable cells in culture. In brief, cells were seeded into 384-well plates at optimal density for each cell line. After 4 h, compounds were added at different concentrations in growth medium and incubated for another 72 h in a humidifying chamber at 37 °C and 5% CO2. Eventually, equal amounts of CellTiter-Glo reagent were added directly to the cells, incubated for 15 min and luminescence was recorded using PHERAstar plate reader (BMG LABTECH GmbH).
In general terms: In ATP-based viability assays light output follows the ATP content of the culture.

In test [3] the test system is SU-DHL-1 cells. Nature of the test: Immunoblotting for PARP and caspase 3 in SU-DHL-1 cells. Format: cell-based, human. The following applies: SU-DHL-1, 1 μM, 24 h or 48 h. The method, then: Cells were maintained in a humidified incubator at 37 °C and 5% CO2. […] All cells were negatively tested for mycoplasma contamination either by the vendor or in house. […] If not stated otherwise, cells were harvested after incubation for 16 h and subjected to SDS-PAGE and western blotting. The RNA interference experiment was performed with CSN5 stealth siRNA (#HSS116986) and stealth negative control siRNA (#12935-400) (Invitrogen), which were transfected at 10 nM into HCT116 cells using […] (Qiagen) according to the manufacturer's protocols. Seventy-two hours after transfection, cells were harvested and subjected to SDS-PAGE and western blotting (see Supplementary Fig. 7 for all western blottings performed). […] Cells from longer compound incubations were also lysed in RIPA buffer, which allows the protein concentration to be determined by BCA Protein Assay Kit (Pierce). Proteins were separated by SDS-PAGE using 4-20% Tris-Glycine Gels (Invitrogen) and subsequently transferred to polyvinylidene difluoride membranes using a Trans-Blot Turbo System (BioRad). […] Horseradish peroxidase-conjugated secondary antibodies (1:3,000) were purchased from Promega AG and bound antibody was detected by enhanced chemiluminescence (Pierce). page 5: Supplementary Figure 5 a b 0 Cul1-Nedd8 Cul1-Nedd8 Cul1 -20 Cul1 Fbxo7 -40 Fbxo7 -60 Actin -80 Actin CDK6 -100 CDK6 […] […]
Background: A western blot detects proteins with antibodies after separation by electrophoresis.

Molecules are shown by their SMILES.

Take `CC(C)n1nc(C(F)F)cc1C(=O)Nc1ccc([C@H]2[C@@H](O)CCCc3cncn32)c(-c2ccccc2)c1` [CSN5i-3, 3-(Difluoromethyl)-N-(6-((5S,6S)-6-hydroxy-6,7,8,9-tetrahydro-5H-imidazo[1,5-a]azepin-5-yl)-[1,1′-biphenyl]-3-yl)-1-isopropyl-1H-pyrazole-5-carboxamide]: in test [1], the concentration for half-maximal inhibition (IC50) (in general, the concentration that gives 50% inhibition) came out at 53 ± 26 µM. In addition, the AMAX result in test [2] was “about −50%”. Besides, in test [3], the “apoptosis markers (cleaved PARP, cleaved caspase 3)” value is “triggered the formation of cleaved PARP and cleaved caspase 3”.
